From patent publication US9872514B2, “Compounds, compositions, and methods for reducing or eliminating bitter taste” (Chromocell Corporation, priority 2010, dated 2018)
Read-outs that look alike come from different tables or passages of the source.

Key:
Format in all cases: in vivo, humans
[1] = system: bitter taste of an aqueous solution of potassium lactate; experiment: Sip and spit bitterness rating of aqueous potassium lactate test solutions; conditions: Homo sapiens; aqueous potassium lactate 41 g/L, 1% EtOH; dash = none of the tested conc.; read-out: Conc. Where Decrease in Bitter Taste Was Discerned
Protocol: (§1) A set of KCl solution standards was developed and each standard solution was assigned a bitterness taste score of 0-15 (corresponding to aqueous KCl concentrations of 0 mM-120 mM). Panelists were trained to recognize these standards. In addition, before each day of testing, panelists were tested to see if they could determine differences in taste between the standard solutions. If a panelist was unable to recognize a change in KCl concentration, they were excluded from the panel for that day.
(§2) In a blind taste test, panelists were asked to compare the bitter taste of a small quantity (e.g., 8 ml) of each of the KCl Test Solutions to the taste of a KCl solution standard, without swallowing (see, e.g., Table 1). Specifically, panelists were asked to rate the bitterness of each KCl Test Solution on a scale of 0-15 using the same scale developed for the KCl solution standards. Each sample was tested in 2-4 discrete taste test experiments. Panelists were asked to rinse with water, eat a cracker, and wait approximately 10 minutes between samples.
Edible potassium lactate solution compositions (“potassium lactate test solutions”) were prepared by first dissolving varying amounts of the test compounds in an amount of ethanol or water (depending on the solubility of the compound) to create a 5 mg/mL stock compound solution. An amount of this stock compound solution is then added to an aqueous potassium lactate solution. Enough EtOH is then added to the resulting stock compound/potassium lactate solution so that the final potassium lactate test solution contains 1% EtOH. Potassium lactate solution standards were similarly prepared by dissolving various amounts of potassium lactate in water and ethanol without adding any test compound.
The effect of the test compounds on the perception of the bitter taste of an aqueous solution of potassium lactate in humans was evaluated using the “sip and spit” test described in Example 2.

[2] = system: bitter taste of an aqueous solution of KCl; experiment: Sip and spit bitterness rating of aqueous KCl test solutions; conditions: aqueous KCl 4.85 g/L, 1% EtOH, bitterness scored 0-15 vs KCl standard, dash = none of the tested conc.; for minimal effective concentration: Homo sapiens
Protocol: An amount of this stock compound solution is then added to an aqueous KCl solution. Enough EtOH is then added to the resulting stock compound/KCl solution so that the final KCl test solution contains 1% EtOH. KCl solution standards were similarly prepared by dissolving various amounts of KCl in water and ethanol without adding any test compound.
The effect of the test compounds an the perception of the bitter taste of an aqueous solution of KCl in humans was evaluated using a “sip and spit” test as follows.
as §1, §2

[3] = system: bitter taste of KCl foodstuff slurries; experiment: Two-alternative forced choice (2AFC) sip and spit test of KCl turkey foodstuff slurries; conditions: Homo sapiens, turkey slurry, 1.6% KCl, 2AFC vs KCl slurry standard, dash = none of the tested conc.
Protocol: Edible KCl food compositions (“KCl test foodstuff slurries”) were prepared as follows. Dehydrated, salt-free turkey powder was weighed and mixed with various amounts of KCl and/or NaCl and then solubilized with boiling water to create a homogenized solubilized turkey slurry. Varying amounts of the test compounds were dissolved in an amount of ethanol or water (depending on the solubility of the compound) to create a 5 mg/mL stock compound solution. An amount of this stock compound solution was then added to the turkey slurry. Enough EtOH is then added to the resulting stock compound/turkey slurry so that the slurry contains 1% EtOH. The slurry was again homogenized by boiling and mixing and allowed to cool to yield the final KCl test foodstuff slurry for taste testing KCl foodstuff slurry standards were similarly prepared without any test compound.
The effect of the test compounds on the perception of the bitter taste of KCl foodstuff slurries in humans was evaluated using a two-alternative-forced-choice “sip and spit” test as follows.
In a blind taste test, panelists received two portions of turkey slurry—one portion being the KCl foodstuff slurry standard and the other being one of the KCl test foodstuff slurries (each prepared as described in Example 5). The panelists tasted each of the portions by sipping and spitting. Each sample was tested in 2-4 discrete taste test experiments. Panelists were asked to rinse with water, eat a cracker, and wait about 10 minutes between samples. In each case, the panelists were asked to compare the bitter taste of the two turkey samples to each other (i.e., panelists were asked to indicate which sample was less bitter).

[4] = system: bitter taste of an aqueous solution of KCl; experiment: Latin Square-2AFC sip and spit test of aqueous KCl solutions; conditions: Homo sapiens; aqueous KCl 4.85 g/L, Latin Square-2AFC vs KCl standard; dash = none of the tested conc.; read-out: Conc. at Which At Least 50% of Panelist Discerned Decrease in Bitter Taste and p ≦ 0.1
Protocol: The effect of the test compounds on the perception of the bitter taste of an aqueous solution of KCl in humans was evaluated using a “sip and spit” test using a Latin Square-2AFC testing method as follows.
In a blind taste test, panelists were asked to compare the bitter taste of a small quantity (e.g., 8 ml) of a KCl Test Solution to the taste of a KCl solution standard (prepared as described in Example 1), without swallowing. NaCl solution standards were prepared as described in Example 1.
In order to eliminate any effects of sample order, a complete Latin Square design was employed so that each possible order of sample presentation was utilized across subjects. Each sample was tested in several discrete taste test experiments. Panelists were asked to rinse with water, eat a cracker, and wait about 10 minutes between samples. In each case, the panelists were asked to choose the sample which tasted “less bitter.” Illustrative results of the aqueous solution Latin Square-2AFC testing are presented in Table 5.

[5] = read-out: Conc. Where Decrease in Bitter Taste Discerned and p ≦ 0.1
[6] = read-out: Conc. Where Decrease in Bitter Taste Was Discerned
[7] = read-out: Conc. at Which At Least 50% of Panelist Discerned Decrease in Bitter Taste

| SMILES | minimal effective concentration [2, 6] [µg/mL] | other results |
| --- | --- | --- |
| COc1cc(-c2oc3cc(O)cc(O)c3c(=O)c2O)ccc1O [Compound 102] | 1 | minimal effective concentration [1]: 1 µg/mL; minimal effective concentration [2, 5]: 1 µg/mL; minimal effective concentration [3, 7]: 10 µg/mL |
| COC(CC(C)CCCC(C)(C)O)OC (stereo not shown) [Compound 18] | 10 | – |
| CC(C)CC(=O)O[C@@H]1C[C@@H]2CC[C@@]1(C)C2(C)C [Compound 78] | 1 | – |
| CC1(C)[C@H]2CC[C@H](CO)[C@@H]1C2 [Compound 92] | 1 | minimal effective concentration [2, 5]: 1 µg/mL |
| CCCC(=O)OC/C=C(\C)CCC=C(C)C [Compound 23] | – | minimal effective concentration [2, 5]: 1 µg/mL |
| CC(=O)Oc1c(C)c(C)c2c(c1C)CC[C@@](C)(CCCC(C)CCCC(C)CCCC(C)C)O2 (stereo partly shown) [Compound 45] | 1 | – |
| COc1c(C(=O)CC(=O)c2ccccc2)ccc2occc12 [Compound 132] | 1 | – |
| O=Cc1ccc2c(c1)OCO2 [Compound 114] | – | minimal effective concentration [4]: 25 µg/mL |
| O=C1CC(C(=O)O)C(C(=O)O)O1 (stereo not shown) [Compound 133] | 2 | minimal effective concentration [2, 5]: 2 µg/mL |
| CC(C)=CCCC(C)CC=O (stereo not shown) [Compound 13] | 1 | – |
| O=C(O)c1ccccc1 [Compound 54] | – | Conc. Where Decrease in Bitter Taste Was Discerned [2]: 10 ppm |
| O=C(O)c1ccc(O)cc1 [Compound 58] | 10 | minimal effective concentration [2, 5]: 10 µg/mL |
| C/C=C/c1ccc2c(c1)OCO2 [Compound 118] | – | minimal effective concentration [1]: 1 µg/mL |
| CCCCC(=O)OCCC(C)CCC=C(C)C (stereo not shown) [Compound 12] | 10 | – |
| CC(=O)Oc1c(C)c(C)c2c(c1C)CCC(C)(CCCC(C)CCCC(C)CCCC(C)C)O2 (stereo not shown) [Compound 50] | 1 | – |
| O=c1cc(-c2ccccc2)oc2cc(O)ccc12 [Compound 101] | 1 | – |
| CC(=O)/C=C/C1C(C)=CCCC1(C)C (stereo not shown) [Compound 5] | 0.1 | minimal effective concentration [2, 5]: 0.1 µg/mL |
| CC(O)c1ccccc1 (stereo not shown) [Compound 71] | – | minimal effective concentration [2, 5]: 1 µg/mL |
| CC(CC=O)CCCC(C)(C)O (stereo not shown) [Compound 17] | 1 | – |
| CCCOC(=O)c1ccccc1 [Compound 56] | 1 | – |
| O=C(O)c1ccc(O)cc1O [Compound 59] | 1 | – |
| CCCCOC(=O)c1ccc(O)cc1 [Compound 63] | – | minimal effective concentration [2, 5]: 1 µg/mL; minimal effective concentration ([3]; read-out: Conc. at Which At Least 50% of Panelist Discerned Decrease in Bitter Taste and p ≦ 0.1): 30 µg/mL |
| COC(=O)c1ccc(O)cc1 [Compound 61] | 1 | – |
| CC(=O)O[C@@H]1C[C@@H]2CC[C@@]1(C)C2(C)C [Compound 88] | – | minimal effective concentration [2, 5]: 1 µg/mL; minimal effective concentration [3, 7]: 1 µg/mL |
| COc1ccc2c(c1)[nH]c1c(C)nccc12 [Compound 130] | 40 | – |
| COc1ccc(-c2cc(=O)c3c(OC)c(OC)c(OC)cc3o2)cc1 [Compound 99] | 1 | – |
| CC(C)=CCCC(C)CCO (stereo not shown) [Compound 7] | 10 | – |

| SMILES | minimal effective concentration [2, 6] [µg/mL] | other results |
| --- | --- | --- |
| CC(C)=CCCC(C)CCOC=O (stereo not shown) [Compound 8] | 10 | minimal effective concentration [3, 7]: 1 µg/mL |
| CC(=O)OCCC(C)CCC=C(C)C (stereo not shown) [Compound 9] | 10 | – |
| CC(=O)CCC1=C(C)CCCC1(C)C [Compound 4] | – | minimal effective concentration [2, 5]: 1 µg/mL |
| COc1cc(OC)c2c(=O)cc(-c3ccccc3)oc2c1 [Compound 100] | 10 | – |
| COC(=O)c1ccccc1OC [Compound 68] | 10 | – |
| Oc1cc(O)c2c(c1)O[C@H](c1ccc(O)c(O)c1)[C@@H](O)C2 [Compound 104] | 10 | – |
| O=c1c(O)c(-c2ccc(O)c(O)c2)oc2cc(O)cc(O)c12 [Compound 111] | – | minimal effective concentration [2, 5]: 10 µg/mL; minimal effective concentration [3, 7]: 1 µg/mL |
| O=C(O[C@@H]1Cc2c(O)cc(O)cc2O[C@@H]1c1cc(O)c(O)c(O)c1)c1cc(O)c(O)c(O)c1 [Compound 108] | 1 | – |
| CC(=O)OC1C2(C)CCC(C2)C1(C)C (stereo not shown) [Compound 81] | 10 | – |
| Cc1cc(O)cc2c1O[C@](C)(CCC[C@H](C)CCC[C@H](C)CCCC(C)C)CC2 [Compound 49] | 10 | – |
| CC(=O)OC/C=C(\C)CCC=C(C)C [Compound 21] | 10 | minimal effective concentration [3, 7]: 10 µg/mL |
| CCOC(=O)c1ccc(O)cc1 [Compound 62] | 10 | – |
| O=C(/C=C/C=C/c1ccc2c(c1)OCO2)N1CCCCC1 [Compound 113] | 1 | – |
| CC(C)=CCC/C(C)=C\COC(=O)CC(C)C [Compound 25] | – | minimal effective concentration [2, 5]: 1 µg/mL |
| CCCC(=O)OC/C=C(/C)CCC=C(C)C [Compound 33] | 1 | – |
| CC(=O)OCC1=CC[C@@H]2C[C@H]1C2(C)C [Compound 94] | 10 | – |
| CC(=O)CC/C=C(\C)CCC=C(C)C [Compound 29] | 1 | – |
| O=C1C[C@@H](c2ccccc2)Oc2cc(O)cc(O)c21 [Compound 97] | 1 | – |
| CC(=O)CCC1C(C)=CCCC1(C)C (stereo not shown) [Compound 6] | – | minimal effective concentration [2, 5]: 1 µg/mL |
| C/C=C/C(=O)C1=C(C)CCCC1(C)C [Compound 1] | 0.1 | minimal effective concentration [2, 5]: 0.1 µg/mL |
| O=C(O[C@@H]1Cc2c(O)cc(O)cc2O[C@@H]1c1ccc(O)c(O)c1)c1cc(O)c(O)c(O)c1 [Compound 107] | 10 | – |
| C[C@@H]1[C@@H](O)C[C@H]2C[C@@H]1C2(C)C [Compound 90] | 1 | – |
| CC(C)=CCC/C(C)=C/COC(=O)CC(C)C [Compound 24] | 10 | – |
| Oc1cc(O)c2c(c1)O[C@@H](c1cc(O)c(O)c(O)c1)[C@H](O)C2 [Compound 106] | 1 | – |
| C=C1CC[C@H]2O[C@]2(C)CC[C@@H]2[C@@H]1CC2(C)C [Compound 121] | 40 | minimal effective concentration [2, 5]: 40 µg/mL |
| CC(C)C(=O)OCc1ccc2c(c1)OCO2 [Compound 117] | 10 | – |
